{
  "source": "paper PMC3130785",
  "about": "“Small Compound 6-O-Angeloylplenolin Induces Mitotic Arrest and Exhibits Therapeutic Potentials in Multiple Myeloma” (PLoS ONE, 2011)",
  "key": {"[1]": {"system": "U266, RPMI 8226, MM.1S, and MM.1R cells", "experiment": "Trypan blue exclusion assay", "format": "cell-based, human", "conditions": "6-OAP 5 to 7.5 µM", "method": "U266, RPMI 8226 cells (1×10^4), primary CD138+ cells, PBMCs (5×10^4), and BMSCs (1×10^4) were cultured in 96-well dishes and incubated without or with 6-OAP at indicated concentration for 48 h. MM.1S and MM.1R cells (2×10^4) were seeded into 96-well dishes and pre-cultured for 24 h, then treated with 6-OAP for 48 h. Cell proliferation was determined by MTT assay. Cell viability was estimated by trypan blue dye exclusion."}, "U266 cells": {"system": "U266 cells", "experiment": "Immunofluorescence analysis of microtubules (anti-α-tubulin)", "format": "cell-based, human", "conditions": "5 to 7.5 µM for 24 h or 7.5 µM for 12 to 24 h", "method": "Both control and 6-OAP-treated MM cells were plated on glass slides by centrifugation using a cytospin, air-dried for 5 min at room temperature, and fixed with 4% paraformaldehyde for 15 min. After a brief washing in PBS with 100 mM glycine, slides were blocked with 5% bovine serum albumin (BSA; Sigma) and 0.3% Triton X-100 in PBS for 30 min at room temperature. Microtubules were detected with indicated antibodies diluted 1∶50 in 5% BSA in PBS overnight at 4°C and FITC or rhodamine-conjugated secondary antibodies (Santa Cruz) diluted 1∶200 in 5% BSA in PBS for 1.5 h at 37°C. Cells were then washed three times with PBS. Nuclei were stained with DAPI (Sigma).\nFigure 2 6-OAP induces mitotic arrest in MM cells. (A) U266 cells were treated with 6-OAP at 7.5 µM for 0, 24, 48 h and imaged by Leica DMI 400B microscope. (B) U266 cells were treated with 6-OAP at indicated concentrations for 48 h. Cell cycle distribution was determined by flow cytometry. (C) MM.1S cells were treated with 5 µM 6-OAP for 48 h. Cell cycle distribution was determined by flow cytometry. (D) U266 cells were treated with 6-OAP at 5 to 7.5 µM for 24 h (left panel) or at 7.5 µM for 12 to 24 h (right panel). For immunofluorescence analysis of microtubules, cells was stained with an anti-α-tubulin antibody to visualize microtubules (green) and DAPI to counter stained DNA (blue) and observed by confocal microscopy. […]"}},
  "data": [
    {"compound": "CC=C(C)C(=O)OC1C2C(CC(C)C3C=CC(=O)C31C)OC(=O)C2C", "note": "(centres unmarked) [6-OAP, 6-O-angeloylplenolin]", "values": [
      {"measurement": "cell growth (trypan blue exclusion)", "setting": "[1]", "result": "markedly inhibited cell growth"},
      {"measurement": "cellular microtubule network / mitotic spindle", "setting": "U266 cells", "result": "cellular microtubules assembled to form mitotic spindle"}
    ]}
  ]
}
